Data taken from PubChem BioAssay (NCI).
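Grown in 96-well plates, cells were treated for 48 hours with each compound at five concentrations. Insufficient inhibition: endpoint recorded as highest concentration tested. TGI: total growth inhibition.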

Experiments:
Assay in all cases: inhibition of tumour cell growth, NCI panel, 48 h
[1] = system: RXF-631 renal
[2] = system: COLO 205 colon
[3] = system: HT29 colon
[4] = system: DMS 273 small cell lung
[5] = system: A498 renal
[6] = system: OVCAR-8 ovarian
[7] = system: HOP-18 NSCLC
[8] = system: XF 498 CNS
[9] = system: SK-MEL-28 melanoma
[10] = system: K-562 leukemia
[11] = system: HCT-116 colon
[12] = system: SK-MEL-2 melanoma
[13] = system: MOLT-4 leukemia
[14] = system: IGROV1 ovarian
[15] = system: SNB-19 CNS
[16] = system: HCT-15 colon
[17] = system: DLD-1 colon
[18] = system: OVCAR-5 ovarian
[19] = system: M14 melanoma
[20] = system: SW-620 colon
[21] = system: EKVX NSCLC
[22] = system: SN12C renal
[23] = system: ACHN renal
[24] = system: SF-295 CNS
[25] = system: U251 CNS
[26] = system: HOP-92 NSCLC
[27] = system: MALME-3M melanoma
[28] = system: HCC-2998 colon
[29] = system: NCI-H226 lung
[30] = system: TK-10 renal
[31] = system: LOX IMVI melanoma
[32] = system: NCI-H23 lung
[33] = system: SNB-75 CNS
[34] = system: SNB-78 CNS
[35] = system: A549 NSCLC
[36] = system: KM12 colon
[37] = system: HL-60(TB) leukemia
[38] = system: SR leukemia
[39] = system: UACC-257 melanoma
[40] = system: SF-268 CNS
[41] = system: NCI-H460 lung
[42] = system: SF-539 CNS
[43] = system: RPMI-8226 leukemia
[44] = system: CCRF-CEM leukemia
[45] = system: LXFL 529 NSCLC
[46] = system: SK-MEL-5 melanoma
[47] = system: DMS 114 small cell lung
[48] = system: RXF 393 renal

Measured: TGI

C=C=CC(NC(=O)c1ccccc1)(C(=O)O)C(F)(F)F (stereo not drawn)
> 100 µM: all assays above
